Several values for one entry are separate records, joined by “and”; a condition that tells them apart may be missing. Identical values can stand only once. Like-named read-outs stand apart in the source and are kept apart here.
How the values were obtained:
[1] = test system: pial arteries branching out of the MCA (C57BL/6J); experiment: Cerebral artery diameter through cranial window in vivo; design: species or system mouse; conditions: for artery diameter, normalized to time 0 / artery diameter, normalized (PROG vs oxime comparison): individual replicates
Description: Eight-12 week-old male and female C57BL/6J mice were anesthetized with a mixture of xylazine/ketamine (12/100 mg per kg) and kept anesthetized for the duration of the experiment with subsequent ketamine doses (50 mg/kg of weight) as needed. A catheter was inserted into the carotid artery so that the infusion went straight to the brain rather than towards the thoracic cavity. An area of the skull was cleared of tissue and thinned to expose the branching arteries originating from the MCA on the side the catheter was inserted, above the zygomatic arch, between the ear and eye of the skull[19],[34]. The exposed arteries branching out from the MCA were monitored using a Leica MC170 HD microscope with a mounted camera (Leica M125 C) connected to a computer monitor. Drugs were diluted to their final concentration in sodium saline (0.9% NaCl) and administered via catheter at 0.1 ml/25 g of weight. Cranial window images before and after drug administration were acquired every 60 seconds for subsequent analysis.

[2] = target: T1, BK β1 subunit (KCNMB1 product) (Rattus norvegicus, UniProt P97678); experiment: Thermal unfolding (microscale thermophoresis, Prometheus) of purified wt β1; assay type: binding; conditions: for effect on thermal unfolding / binding: vs DMSO
T1 construct: FLAG (DYKDDDDK); made in house; host or cells: CHO cells, transient transfection, anti-flag immunoprecipitation
T1 sequence (P97678 1-191): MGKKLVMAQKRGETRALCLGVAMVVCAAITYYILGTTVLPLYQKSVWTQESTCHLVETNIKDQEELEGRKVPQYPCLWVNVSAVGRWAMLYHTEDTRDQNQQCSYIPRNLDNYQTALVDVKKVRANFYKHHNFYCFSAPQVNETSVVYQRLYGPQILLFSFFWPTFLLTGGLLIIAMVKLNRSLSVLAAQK
Text: BK channel-forming slo1 cDNA (cbv1 isoform; AY330293) was cloned from rat cerebral artery SM cells, and inserted into pcDNA3.1 vector as described. BK β1 cDNA (KCNMB1 product; NP_011452; FJ154955) were isolated from rat cerebral artery SM cells and cloned as described. β4 cDNA (KCNMB4; NP_055320; AY028605) were generously provided by Dr. Ligia Toro. CHO cells were transiently transfected with cbv1 ± β1-, or β4-carrying pcDNA3.1 using X-tremeGENE HP (Sigma-Aldrich). Mutations to β1/4 cDNAs were conducted by Genscript, with sequences being confirmed to be >99% identical to KCNMB1 product; NP_011452 or β4 KCNMB4; NP_055320; respectively. β1/4 and mutant constructs were flag-tagged (DYKDDDDK-tag) by Genscript services for subsequent immunoprecipitation and use in microscale thermophoresis studies.
Wt β1, wt β4 and mutant constructs were purified by immunoprecipitation using Dynabeads Protein G Kit (10007D by Invitrogen) and following the manufacturer’s instructions. Rabbit polyclonal anti-flag antibody (10 µg; Abcam, Cat# ab205606, RRID:AB_2916341) was cross-linked with dynabeads. Transfected CHO cell lysate supernatant was divided into aliquots containing […] per column. Following precipitation, kit instructions for non-denaturing elutions were followed; one elution of 30 µl was collected for each column, and pH was adjusted to 7.5 using UltraPure 1 M Tris-HCI buffer pH 7.5 (cat# 15567027 by Fisher Scientific). PROG stock or vehicle control (DMSO) was added to the eluate to reach PROG final concentrations (0.004-40 µM), all dissolved within the same concentration of DMSO. Glass capillaries were prepared and loaded in triplicates into Prometheus (Nanotemper) and heated from 15° to 95 °C at a rate of 1°/min, the largest thermal scale available to run in the Nanotemper PR.therm-control software. The unfolding profile of a protein is a plot of its fluorescence signal against temperature. The protein is heated at a defined ramp over a specified temperature range. During the heating process, fluorescence is recorded at 330 and 350 nm. The resulting fluorescence ratio change is then analyzed for onset and inflection points. The temperature of onset and inflection is determined using built-in analysis function in Nanotemper PR.therm-control software. The onset of unfolding or aggregation is the temperature at which the channel conformation (unfolding or aggregation) process first starts. […] Onset and inflection points were validated by comparing the first-derivative variations between technical triplicates (high degrees of variations in the first derivative are shown in Supplementary Fig. 1b, c). CRC data obtained from microscale thermophoresis experiments were fitted to a Boltzmann function of the type: y=A1−A2/1+e^x−x0+A2 using Origin 2020 software (OriginLab; OriginLab Corporation).

[3] = Fig 7F, same values as Fig 7D time 7, female mice
[4] = Δ onset to inflection vs concentration

SMILES: CC(=O)[C@H]1CC[C@H]2[C@@H]3CCC4=CC(=O)CC[C@]4(C)[C@H]3CC[C@]12C [PROG, Progesterone]
- in vivo action on MCA branches ([1]; 10 μM infused via carotid artery, both sexes): vasodilation
- artery diameter, normalized to time 0 ([1]; Fig 7C, time 4, male mice): 1.09 (2×) and 1.035 and 1.058 and 0.9438
- artery diameter, normalized to time 0 ([1]; Fig 7C, time 5, male mice): 1.016 and 1.1 and 0.9912 and 1.082 and 0.9491
- artery diameter, normalized to time 0 ([1]; Fig 7C, time 6, male mice): 1.051 and 1.116 and 1.012 and 1.08 and 1.037
- artery diameter, normalized to time 0 ([1]; Fig 7C, time 7, male mice): 1.112 and 1.049 and 1.05 and 1.107 and 1.058
- artery diameter, normalized to time 0 ([1]; Fig 7C, time 8, male mice): 1.011 and 1.1193 and 1.034 and 1.1 and 1.095
- artery diameter, normalized to time 0 ([1]; Fig 7C, time 9, male mice): 1.079 and 1.105 and 1.031 and 1.086 and 1.089
- artery diameter, normalized to time 0 ([1]; Fig 7C, time 10, male mice): 1.09 and 1.053 and 0.9685 and 1.068 and 1.048
- artery diameter, normalized to time 0 ([1]; Fig 7C, time 11, male mice): 1.108 and 1.043 and 1.018 and 1.059 and 1.07
- artery diameter, normalized to time 0 ([1]; Fig 7C, time 12, male mice): 0.9973 and 1.002 and 1.105 and 1.107 and 1.084
- artery diameter, normalized to time 0 ([1]; Fig 7C, time 13, male mice): 1.13 and 1.0049 and 1.077 and 1.135 and 1.0321
- artery diameter, normalized to time 0 ([1]; Fig 7D, time 4, female mice): 1.137 and 1.058 and 0.95 and 1.071 and 1.184
- artery diameter, normalized to time 0 ([1]; Fig 7D, time 5, female mice): 0.9598 and 1.079 and 0.97 and 0.997 and 1.229
- artery diameter, normalized to time 0 ([1]; Fig 7D, time 6, female mice): 1.069 and 1.14 and 1.01 and 1.116 and 1.159
- artery diameter, normalized to time 0 ([1]; Fig 7D, time 7, female mice): 1.131 and 1.157 and 1.04 and 1.012 and 1.149
- artery diameter, normalized to time 0 ([1]; Fig 7D, time 8, female mice): 1.128 and 1.058 and 1.05 and 1.074 and 1.104
- artery diameter, normalized to time 0 ([1]; Fig 7D, time 9, female mice): 1.1 and 1.083 and 1.05 and 1.009 and 1.17
- artery diameter, normalized to time 0 ([1]; Fig 7D, time 10, female mice): 1.137 and 1.135 and 1.10 and 1.112 and 1.096
- artery diameter, normalized to time 0 ([1]; Fig 7D, time 11, female mice): 1.0383 and 1.014 and 1.12 and 1.119 and 1.133
- artery diameter, normalized to time 0 ([1]; Fig 7D, time 12, female mice): 1.097 and 0.9908 and 1.08 and 1.129 and 1.16
- artery diameter, normalized to time 0 ([1]; Fig 7D, time 13, female mice): 1.0971 and 1.058 and 1.25 and 1.0807 and 1.024
- artery diameter, normalized (PROG vs oxime comparison) [1, 3]: 1.043
- concentrations optimal to bind β1 as determined by MST [2]: 4 to 10 µM
- delta (Δ) of onset to inflection point ([2]; 0.004 µM PROG, individual records (Fig 1B)): 5.26 and 13.2518 and 6.093 and 5.155 and 14.4223 and 5.701 and 4.973 and 10.2833 and 5.781 and 6.3298 and 7.116
- delta (Δ) of onset to inflection point ([2]; 0.04 µM PROG, individual records (Fig 1B)): 5.943 and 2.008 and 8.93 and 4.708 and 3.29 and 2.039 and 5.415 and 2.123 and 6.078 and 9.405 and 14.8911 and 5.538
- delta (Δ) of onset to inflection point ([2]; 0.4 µM PROG, individual records (Fig 1B)): 3.821 and 6.41 and 2.29 and 0.9082 and 1.393 and 3.976 and 4.647 and 6.669 and 3.779 and 6.772
- delta (Δ) of onset to inflection point ([2]; 1.3 µM PROG, individual records (Fig 1B)): 10.9265 and 4.989 and 3.478 and 3.054 and 2.195 and 4.0816
- delta (Δ) of onset to inflection point ([2]; 4 µM PROG, individual records (Fig 1B)): 4.355 and 17.5013 and 19.981 and 4.864 and 5.088 and 8.156 and 15.523 and 3.088 and 7.882 and 12.3542 and 0.9184 and 8.919 and 6.947 and 9.668
- delta (Δ) of onset to inflection point ([2]; 10 µM PROG, individual records (Fig 1B)): 12.73 and 36.72 and 4.56 and 4.587 and 4.664 and 11.45 and 5.307 and 5.645 and 4.368 and 3.818
- delta (Δ) of onset to inflection point ([2]; 10 μM PROG, individual records (Fig 1C, SFig1A)): 9.668 and 4.355 and 17.5013 and 19.981 and 4.864 and 5.088 and 8.156 and 15.523 and 3.088 and 7.882 and 12.3542 and 0.9184 and 8.919 and 6.947
- delta (Δ) of onset to inflection point ([2]; 40 µM PROG, individual records (Fig 1B)): 6.851 and 14.1513 and 13.0079 and 8.574 and 9.969 and 3.1593 and 5.59 and 5.656
- effect on thermal unfolding / binding [2]: decreases the difference in delta between the onset inflection events
- high-affinity binding process: concentration at maximum [2, 4]: 0.4 to 1 µM
- low-affinity binding process: concentration at maximum [2, 4]: 10 µM
- EC50 ([2]; Δ onset to inflection vs concentration, read-out: high-affinity binding process: 50% value): 0.04 µM
- EC50 ([2]; Δ onset to inflection vs concentration, read-out: low-affinity binding process: 50% value): ~2.2 µM

SMILES: CC(=O)C1CCC2C3CCC4=CC(=NOCC(=O)O)CCC4(C)C3CCC12C (centres unmarked) [PROG-oxime, progesterone 3-(O-carboxymethyl)oxime]
- artery diameter, normalized to time 0 ([1]; Fig 7C, time 0, male mice): 1 (4×) and 1.00
- artery diameter, normalized to time 0 ([1]; Fig 7C, time 1, male mice): 0.9683 and 1.00 and 1.045 and 1.037 and 1.174
- artery diameter, normalized to time 0 ([1]; Fig 7C, time 2, male mice): 0.9748 and 0.99 and 1.075 and 1.065 and 0.9672
- artery diameter, normalized to time 0 ([1]; Fig 7C, time 3, male mice): 0.9521 and 0.88 and 1.045 and 0.8398 and 1.066
- artery diameter, normalized to time 0 ([1]; Fig 7C, time 4, male mice): 0.9683 and 0.84 and 0.9351 and 0.8169 and 0.9018
- artery diameter, normalized to time 0 ([1]; Fig 7C, time 5, male mice): 1.008 and 1.01 and 1.026 and 0.9472 and 0.9098
- artery diameter, normalized to time 0 ([1]; Fig 7C, time 6, male mice): 1.041 and 0.92 and 0.9494 and 0.9176 and 1.063
- artery diameter, normalized to time 0 ([1]; Fig 7C, time 7, male mice): 0.9184 and 0.90 and 0.9635 and 0.9259 and 0.9935
- artery diameter, normalized to time 0 ([1]; Fig 7C, time 8, male mice): 0.9894 and 0.92 and 0.9405 and 0.9778 and 0.9794
- artery diameter, normalized to time 0 ([1]; Fig 7C, time 9, male mice): 0.8438 and 0.91 and 1.0031 and 0.973 and 0.9169
- artery diameter, normalized to time 0 ([1]; Fig 7D, time 0, female mice): 1.00 and 1 (4×)
- artery diameter, normalized to time 0 ([1]; Fig 7D, time 1, female mice): 0.90 and 1.017 and 1.077 and 0.9108 and 0.9562
- artery diameter, normalized to time 0 ([1]; Fig 7D, time 2, female mice): 0.98 and 0.9692 and 1.08 and 1.015 (2×)
- artery diameter, normalized to time 0 ([1]; Fig 7D, time 3, female mice): 0.96 and 0.8809 and 1.0998 and 0.9303 and 1.006
- artery diameter, normalized to time 0 ([1]; Fig 7D, time 4, female mice): 0.71 and 0.9764 and 0.9876 and 0.9569 and 0.8502
- artery diameter, normalized to time 0 ([1]; Fig 7D, time 5, female mice): 0.75 and 0.9574 and 1.009 and 0.7872 and 0.892
- artery diameter, normalized to time 0 ([1]; Fig 7D, time 6, female mice): 0.76 and 0.8573 and 1.009 and 0.8606 and 0.8869
- artery diameter, normalized to time 0 ([1]; Fig 7D, time 7, female mice): 0.82 and 0.8681 and 0.9667 and 0.8496 and 0.8082
- artery diameter, normalized to time 0 ([1]; Fig 7D, time 8, female mice): 0.87 and 0.8872 and 1.0207 and 0.8807 and 0.7534
- artery diameter, normalized to time 0 ([1]; Fig 7D, time 9, female mice): 0.74 and 0.8893 and 0.9136 and 0.9444 and 0.8332
- artery diameter, normalized (PROG vs oxime comparison) ([1]; Fig 7E, same values as Fig 7C time 7, male mice): 0.8986
- artery diameter, normalized (PROG vs oxime comparison) [1, 3]: 0.97 and 0.85 and 0.81
- effect on thermal unfolding / binding [2]: actual binding to wt β1
